Laboratory results from patent US11707456B2, “Processes for preparing arimoclomol citrate and intermediates thereof” (KemPharm Denmark A/S, priority 2020, dated 2023).

Columns and labels:
[1] = design: species or system human; conditions: in vivo, po
Source text: The stability permits that the permeability of arimoclomol is high based on urinary recovery in human mass balance trial.

[2] = Stability of ORZY-04 on drying at 45° C. in vacuum; format: physicochemical; conditions: after 168 h of drying at 45° C. in vacuum
Experimental: A citric acid solution was prepared by charging citric acid (15.01 g, […]) and MeOH (100 mL) in a separate container and stirring for 5 min. at 20° C. The citric acid solution was then charged to the container containing the reaction solution, and the mixture was cooled to 0° C. and stirred for at least 12 h at 0° C. ORZY-04 was then isolated by filtration of the obtained suspension, and washed with MeOH (40 mL). Finally, the solids were dried at 45° C. in vacuum. Results

| Compound | drug-related material recovered in faeces [1] | stability on drying [2] |
| --- | --- | --- |
| [O-][n+]1cccc(C(Cl)=NOC[C@H](O)CN2CCCCC2)c1 [arimoclomol, N-{[(2R)-2-hydroxy-3-piperidin-1-ylpropyl]oxy}pyridine-3-carboximidoyl chloride 1-oxide] | 12% | – |
| [O-][n+]1cccc(/C(Cl)=N/OC[C@H](O)CN2CCCCC2)c1 [ORZY-04] | – | stable |
